According to ChEMBL document CHEMBL4819103, “Discovery of selective fragment-sized immunoproteasome inhibitors” (Eur J Med Chem, 2021):
Activity calls are given as the source filed them. The rule behind the calls is not given here.

Tests used:
[1] = Glutathione reactivity of compound at pH 8 measured by HPLC-MS assay; format: physicochemical
[2] = target: T1, Proteasome subunit beta type-8 (Homo sapiens) (UniProt P28062); assay: Inhibition of human chymotrypsin-like beta 5i subunit of iCP assessed as residual activity using suc-LLVY-AMC as flurogenic substrate at 150 uM for 90 mins by fluorescence-based assay
T1 sequence (whole entry): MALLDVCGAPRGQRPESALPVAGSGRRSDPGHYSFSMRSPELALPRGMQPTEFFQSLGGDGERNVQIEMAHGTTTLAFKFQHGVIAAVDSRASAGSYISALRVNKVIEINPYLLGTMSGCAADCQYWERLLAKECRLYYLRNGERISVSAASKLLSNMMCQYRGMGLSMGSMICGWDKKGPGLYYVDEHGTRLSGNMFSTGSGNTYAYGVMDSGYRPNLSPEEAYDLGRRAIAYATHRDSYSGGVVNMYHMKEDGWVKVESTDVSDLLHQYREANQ

[3] = Glutathione reactivity of compound at pH 7.5 measured by HPLC-MS assay; format: physicochemical
[4] = Glutathione reactivity of compound at pH 9 measured by HPLC-MS assay; format: physicochemical
[5] = Thiol reactivity of the compound assessed as TNB2-depletion at 200 uM measured upto 24 hrs by TNB2-depletion assay; format: physicochemical
[6] = target: T2, Proteasome Macropain subunit MB1 (Homo sapiens) (UniProt P28074); assay: Inhibition of beta 5 chymotrypsin-like activity (unknown origin) at 100 uM using Suc-LLVY-AMC as substrate for 90 mins by fluorescence based assay; design: scale not given: the % may be the effect or the level left
T2 sequence (whole entry): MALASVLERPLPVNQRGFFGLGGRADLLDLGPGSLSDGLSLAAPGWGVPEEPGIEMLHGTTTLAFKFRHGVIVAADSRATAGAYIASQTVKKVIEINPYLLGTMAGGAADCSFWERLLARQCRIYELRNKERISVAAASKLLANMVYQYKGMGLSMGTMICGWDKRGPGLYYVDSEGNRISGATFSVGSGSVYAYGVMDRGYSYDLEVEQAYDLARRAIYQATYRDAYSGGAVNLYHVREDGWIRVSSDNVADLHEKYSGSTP

[7] = Glutathione reactivity of compound at pH 8.5 measured by HPLC-MS assay; format: physicochemical
[8] = target: T1, Proteasome subunit beta type-8 (Homo sapiens); assay: Inhibition of human chymotrypsin-like beta 5i subunit of iCP assessed as residual activity using suc-LLVY-AMC as flurogenic substrate at 100 uM for 90 mins by fluorescence-based assay
[9] = Solubility of the compound in buffer; format: physicochemical
[10] = Solubility of the compound in DMSO; format: physicochemical
[11] = target: T3, Proteasome subunit beta type-8 (Homo sapiens, UniProt P28062); assay: Inhibition of human chymotrypsin-like beta 5i subunit of iCP using suc-LLVY-AMC as flurogenic substrate for 90 mins by fluorescence-based assay
T3 sequence (P28062 whole entry): T1 sequence (whole entry)

[12] = target: T4, Proteasome Macropain subunit MB1 (Homo sapiens, UniProt P28074); assay: Inhibition of beta 5 chymotrypsin-like activity (unknown origin) using Suc-LLVY-AMC as substrate for 90 mins by fluorescence based assay
T4 sequence (P28074 whole entry): T2 sequence (whole entry)

[13] = target: T1, Proteasome subunit beta type-8 (Homo sapiens); assay: Inhibition of human chymotrypsin-like beta 5i subunit of iCP assessed as cysteine-48 labelling by Ellman's method
Homo sapiens [14] = organism: Homo sapiens; assay: Selectivity ratio of IC50 for human beta1i subunit of iCP Pto IC50 for human chymotrypsin-like beta 5i subunit of iCP
Homo sapiens [15] = organism: Homo sapiens; assay: Selectivity ratio of IC50 for human beta2 subunit of cCP Pto IC50 for human chymotrypsin-like beta 5i subunit of iCP
Homo sapiens [16] = organism: Homo sapiens; assay: Selectivity ratio of IC50 for human beta2i subunit of iCP Pto IC50 for human chymotrypsin-like beta 5i subunit of iCP

## Cn1c(S)nc2cc(Cl)ccc21
[1]
  Drug metabolism: Metabolite_Notdetected
[2]
  Activity: 80%
[3]
  Drug metabolism: Metabolite_Notdetected
[4]
  Drug metabolism: Metabolite_Notdetected
[5]
  Drug metabolism: Metabolite_Notdetected
[6]
  Activity: 100%
[7]
  Drug metabolism: Metabolite_Notdetected

## Cc1ccc2nc(S)sc2c1
[8]
  Activity: 55%
[9]
  solubility: Insoluble

## Sc1nc2ccc(Cl)cc2s1
[10]
  solubility: Insoluble

## O=C(CCc1cccnc1)Nc1cccc2[nH]c(=S)oc12
[10]
  solubility: Insoluble

## Cn1c(=S)[nH]c2ccc(NC(=O)c3ccccc3)cc21
[8]
  Activity: 39%
[9]
  solubility: Insoluble

## N#Cc1nc2ccc(Cl)cc2o1
[11]
  IC50: 9.1 µM
[12]
  IC50: 45 µM
[13]
  inhibition: Active

## O=S(=O)(F)c1nc2ccccc2s1
[11]
  IC50: 11 µM
[12]
  IC50: 81 µM
Homo sapiens [14]
  Ratio IC50: 7
Homo sapiens [15]
  Ratio IC50: 7
Homo sapiens [16]
  Ratio IC50: 7
